SMILES strings stand for the structures. Read-outs that look alike come from different tables or passages of the source.

This is an account of results in US5593970A, “Heterocyclic anthracycline analogs” (priority 1994, dated 1997).

Assay in all cases: Microculture tetrazolium assay
What all share (assay type): cell-based

In one assay the test system is SKOV3. The settings on record: read-out: IC50.
For the next assay, the system named is SKVLB. The note with it: for VLB/OV3: IC50 ratio SKVLB/SKOV3; for IC50: SKVLB, read-out: IC50.
Another assay has as its system T47D. The settings on record: read-out: IC50.
For another assay, the system named is LOX.
For the next assay, the system named is HT29. The note with it: read-out: IC50.

As to `CC1(C2Cc3c(O)c4c(c(O)c3CO2)C(=O)c2ccccc2C4=O)OCCCO1` (stereo not shown) [BCH-1115], the 50% inhibitory concentration (IC50) in the assay with SKOV3 (Homo sapiens, SK-OV-3, SKOV3) came to 9.28 µM; in the assay with SKVLB, 11.5 µM; in the assay with T47D (Homo sapiens), 12.6 µM; in the assay with LOX (read-out: IC50) it was 7.02 µM; in the assay with HT29 (Homo sapiens, HT-29, HT29) it was 6.25 µM. The VLB/OV3 in the assay on SKVLB is on record as 1.24.
In the case of `CC(=O)C1Cc2c(O)c3c(c(O)c2C(O)O1)C(=O)c1ccccc1C3=O` (stereo not shown) [BCH-1116], the IC50 in the assay on SKOV3 (Homo sapiens, SK-OV-3, SKOV3) amounted to 26.1 µM; with SKVLB, 21.3 µM; in the assay with T47D (Homo sapiens) it was 11.1 µM; with LOX (read-out: IC50), 31.3 µM; in the assay with HT29 (Homo sapiens, HT-29, HT29), 7.6 µM. The VLB/OV3 in the assay with SKVLB is given as 0.82.
As for `CC(=O)[C@H]1CC2=C(C(=O)c3cc4ccccc4c(O)c3C2=O)[C@H](O[C@H]2C[C@H](O)[C@H](O)[C@H](C)O2)O1` [BCH-1123, (1'S,1S,3R)-Methyl-[6-hydroxy-1-(2',3',6'-trideoxy-3',4'-dihydroxy-L-lyxohexopyranose)-5,12-dioxo-3,4,5,12-tetrahydroanthraceno(2,3-C)pyran-3-yl]ketone], the IC50 is 1.41 µM with SKOV3 (Homo sapiens, SK-OV-3, SKOV3); 1.3 µM in the assay with SKVLB; 3.84 µM in the assay on T47D (Homo sapiens); 1.22 µM with LOX (read-out: IC50); 0.436 µM in the assay with HT29 (Homo sapiens, HT-29, HT29). Also, the VLB/OV3 in the assay on SKVLB is given as 0.92.
With `CC(=O)[C@@H]1CC2=C(C(=O)c3cc4ccccc4c(O)c3C2=O)[C@@H](O[C@H]2C[C@H](O)[C@H](O)[C@H](C)O2)O1` [BCH-1124, (1'S,1R,3S)-Methyl-[6-hydroxy-1-(2',3',6'-trideoxy-3',4'-dihydroxy-L-lyxohexopyranose)-5,12-dioxo-2,3,5,12-tetrahydroxyanthraceno(2,3-C)pyran-3-yl]ketone], the IC50 with SKOV3 (Homo sapiens, SK-OV-3, SKOV3) was 4.98 µM; in the assay on SKVLB, 2.17 µM; in the assay on T47D (Homo sapiens), 6.05 µM; in the assay with LOX, 1.88 µM; with HT29 (Homo sapiens, HT-29, HT29), 1.46 µM. In the assay with SKVLB, the VLB/OV3 is given as 0.44.
Turning to `C[C@@H]1O[C@@H](O[C@H]2O[C@H](C(=O)COC(=O)C(C)(C)C)CC3=C2C(=O)c2cc4ccccc4c(O)c2C3=O)C[C@H](NC(=O)C(F)(F)F)[C@@H]1O` [BCH-1136, (1'S,1R,3S)-1,2,3,4,5,12-hexahydro-6-hydroxy-3-trimethylacetoxyaceto-1-N-trifluoroacetyl-L-daunosamine-(2-oxo)-naphthacene-5,12-dione], the IC50 with SKOV3 (Homo sapiens, SK-OV-3, SKOV3) stood at 18 µM; in the assay on SKVLB, 23.1 µM; in the assay on T47D (Homo sapiens), 18.9 µM; in the assay on LOX (read-out: IC50), 12.3 µM; with HT29 (Homo sapiens, HT-29, HT29), 11.5 µM. The VLB/OV3 in the assay on SKVLB came out at 1.28.
For `C[C@@H]1O[C@@H](O[C@@H]2O[C@@H](C(=O)COC(=O)C(C)(C)C)CC3=C2C(=O)c2cc4ccccc4c(O)c2C3=O)C[C@H](NC(=O)C(F)(F)F)[C@@H]1O` [BCH-1137, (1'S,1S,3R)-1,2,3,4,5,12-hexahydro-6-hydroxy-3-trimethylacetoxyaceto-1-N-trifluoroacetyl-L-daunosamine-(2-oxo) naphthacene-5,12-dione], the half-inhibitory concentration (IC50) in the assay with SKOV3 (Homo sapiens, SK-OV-3, SKOV3) stood at 13.7 µM; in the assay with SKVLB, 14.1 µM; in the assay with T47D (Homo sapiens) it was 8.4 µM; in the assay with LOX (read-out: IC50) it was 8.88 µM; in the assay with HT29 (Homo sapiens, HT-29, HT29), 6.37 µM. Also, the VLB/OV3 with SKVLB is reported as 1.03.
Turning to `COC(=O)C1CC2=C(CS1)C(=O)c1cc3ccccc3c(O)c1C2=O` (stereo not shown) [BCH-1149], the IC50 in the assay with SKOV3 (Homo sapiens, SK-OV-3, SKOV3) worked out at 30 µM; in the assay with SKVLB it was 41.5 µM; with T47D (Homo sapiens), 38.5 µM; with LOX (read-out: IC50), 25.3 µM; in the assay with HT29 (Homo sapiens, HT-29, HT29), 29.7 µM. Moreover, the VLB/OV3 with SKVLB amounted to 1.38.
With `COC(=O)C1CC2=C(CS1)C(=O)c1c(cc3ccccc3c1O)C2=O` (stereo not shown) [BCH-1150], the half-maximal inhibitory concentration (IC50) was found to be 100 µM in the assay on SKOV3 (Homo sapiens, SK-OV-3, SKOV3); 100 µM in the assay with SKVLB; 78.3 µM with T47D (Homo sapiens); 84.6 µM in the assay on LOX (read-out: IC50); 64.1 µM in the assay on HT29 (Homo sapiens, HT-29, HT29).
For `CC(=O)C1CC2=C(CS1)C(=O)c1cc3ccccc3c(O)c1C2=O` (stereo not shown) [BCH-1151], the IC50 in the assay on SKOV3 (Homo sapiens, SK-OV-3, SKOV3) stood at 53.3 µM; with SKVLB, 75 µM; with T47D (Homo sapiens) it was 62.5 µM; in the assay on LOX (read-out: IC50) it was 30.5 µM; in the assay with HT29 (Homo sapiens, HT-29, HT29), 58.9 µM. Besides, the VLB/OV3 in the assay on SKVLB was 1.41.
Take `CC(=O)C1CC2=C(CS1)C(=O)c1c(cc3ccccc3c1O)C2=O` (stereo not shown) [BCH-1152]: the IC50 in the assay on SKOV3 (Homo sapiens, SK-OV-3, SKOV3) was determined as 100 µM; with SKVLB it was 100 µM; in the assay with T47D (Homo sapiens) it was 100 µM; in the assay on LOX (read-out: IC50) it was 100 µM; in the assay with HT29 (Homo sapiens, HT-29, HT29), 100 µM.
On to `C[C@@H]1O[C@@H](O[C@H]2O[C@H](C3(CO)OCCCO3)CC3=C2C(=O)c2cc4ccccc4c(O)c2C3=O)C[C@H](N)[C@@H]1O` [BCH-1153], for which the IC50 was found to be 3.02 µM in the assay with SKOV3 (Homo sapiens, SK-OV-3, SKOV3); 14.9 µM in the assay with SKVLB; 4.65 µM in the assay with T47D (Homo sapiens); 2.9 µM in the assay on LOX (read-out: IC50); 2.94 µM in the assay on HT29 (Homo sapiens, HT-29, HT29). Besides, the VLB/OV3 in the assay on SKVLB worked out at 4.93.
Take `C[C@@H]1O[C@@H](O[C@@H]2O[C@@H](C3(CO)OCCCO3)CC3=C2C(=O)c2cc4ccccc4c(O)c2C3=O)C[C@H](N)[C@@H]1O` [BCH-1154]: the IC50 came out at 8.94 µM with SKOV3 (Homo sapiens, SK-OV-3, SKOV3); 28.4 µM with SKVLB; 14.2 µM in the assay with T47D (Homo sapiens); 3.74 µM with LOX (read-out: IC50); 8.55 µM in the assay with HT29 (Homo sapiens, HT-29, HT29). Also, the VLB/OV3 in the assay on SKVLB was found to be 3.18.
For `C=C[C@H]1CC2=C(C(=O)c3cc4ccccc4c(O)c3C2=O)[C@H](O[C@H]2C[C@H](NC(=O)C(F)(F)F)[C@H](O)[C@H](C)O2)O1` [BCH-1155], the IC50 was determined as 6.25 µM in the assay on SKOV3 (Homo sapiens, SK-OV-3, SKOV3); 7.01 µM with SKVLB; 8.5 µM in the assay on T47D (Homo sapiens); 3.97 µM in the assay with LOX (read-out: IC50); 8.8 µM in the assay with HT29 (Homo sapiens, HT-29, HT29). The VLB/OV3 in the assay with SKVLB worked out at 1.12.
For `CC(=O)C1Cc2c(O)c3c(c(O)c2C(O[C@H]2C[C@H](N=[N+]=[N-])[C@H](I)[C@H](C)O2)O1)C(=O)c1ccccc1C3=O` (stereo partly shown) [BCH-1156], the IC50 came out at 26.2 µM with SKOV3 (Homo sapiens, SK-OV-3, SKOV3); 100 µM in the assay with SKVLB; 100 µM in the assay with T47D (Homo sapiens); 100 µM in the assay with LOX (read-out: IC50); 36.2 µM in the assay on HT29 (Homo sapiens, HT-29, HT29).
In the case of `CC(=O)C1CC2=C(C(=O)c3cc4ccccc4c(O)c3C2=O)C(OC2CC(N=[N+]=[N-])C(I)C(C)O2)O1` (stereo not shown) [BCH-1157], the IC50 in the assay on SKOV3 (Homo sapiens, SK-OV-3, SKOV3) is 14.7 µM; in the assay with SKVLB (listed as BCH1157) it was 21 µM; in the assay with T47D (Homo sapiens), 37.6 µM; with LOX (read-out: IC50), > 100 µM; in the assay on HT29 (Homo sapiens, HT-29, HT29), 13 µM. In addition, the VLB/OV3 with SKVLB (listed as BCH1157) was found to be 1.43.
With `CC(=O)C1CC2=C(C(=O)c3cc4ccccc4c(O)c3C2=O)C(OC2CC(N=[N+]=[N-])C(I)C(C)O2)O1` (stereo not shown) [BCH-1158], the IC50 is 8.35 µM in the assay on SKOV3 (SKOV3); 6.2 µM in the assay with SKVLB (listed as BCH1158); 25.7 µM in the assay with T47D; > 100 µM in the assay with LOX (read-out: IC50); 8.25 µM with HT29 (HT29). In the assay with SKVLB (listed as BCH1158), the VLB/OV3 came to 0.74.
As to `CC(=O)O[C@@H]1[C@H](C)O[C@@H](O[C@H]2O[C@H](C(C)=O)CC3=C2C(=O)c2cc4ccccc4c(O)c2C3=O)C[C@@H]1OC(C)=O` [BCH-1165, (1'S,1R,3S)-methyl-(6-hydroxy-1-(2',3',4',6'-tetradeoxy-3',4'-diacetyl-L-lyxohexopyranose)-5,12-dioxo-3,4,5,12-tetrahydroanthraceno-[2,3-c]pyran-3-yl) ketone], the IC50 in the assay on SKOV3 (Homo sapiens, SK-OV-3, SKOV3) amounted to 30.5 µM; in the assay on SKVLB it was 42.1 µM; with T47D (Homo sapiens), 31.5 µM; in the assay on LOX (read-out: IC50), 23.6 µM; in the assay on HT29 (Homo sapiens, HT-29, HT29), 10 µM. Further, the VLB/OV3 with SKVLB is 1.38.
Take `CC(=O)O[C@@H]1[C@H](C)O[C@@H](O[C@@H]2O[C@@H](C(C)=O)CC3=C2C(=O)c2cc4ccccc4c(O)c2C3=O)C[C@@H]1OC(C)=O` [BCH-1166, (1'S,1S,3R)-methyl-(6-hydroxy-1-(2',3',4',6'-tetradeoxy-3',4'-diacetyl-L-lyxohexopyranose)-5,12-dioxo-3,4,5,12-tetrahydroanthraceno-[2,3-c]pyran-3-yl) ketone]: the 50% inhibitory concentration (IC50) amounted to 24.4 µM in the assay on SKOV3 (Homo sapiens, SK-OV-3, SKOV3); 50.8 µM with SKVLB; 31.4 µM with T47D (Homo sapiens); 30.5 µM in the assay on LOX (read-out: IC50); 12.5 µM with HT29 (Homo sapiens, HT-29, HT29). Also, the VLB/OV3 in the assay on SKVLB is 2.08.
For the compound `CC(=O)C1CC2=C(C(=O)c3cc4ccccc4c(O)c3C2=O)C(O)S1` (stereo not drawn) [BCH-1167, Trans-3-aceto-1,6-hydroxy-1,2,3,4,5,12-hexahydro-2-(sulfur)naphthacene-5,12-dione and cis-3-aceto-1,6-hydroxy-1,2,3,4,5,12-hexahydro-2-(sulfur)naphthacene-5,12-dione], the concentration for half-maximal inhibition (IC50) with SKOV3 (Homo sapiens, SK-OV-3, SKOV3) is > 100 µM; in the assay with SKVLB it was > 100 µM; in the assay with T47D (Homo sapiens) it was > 100 µM; with LOX (read-out: IC50), > 100 µM; with HT29 (Homo sapiens, HT-29, HT29), > 100 µM.
Take `C=CC1CC2=C(C(=O)c3cc4ccccc4c(O)c3C2=O)C(O[C@H]2C[C@H](NC(=O)C(F)(F)F)[C@H](O)[C@H](C)O2)O1` (stereo partly shown) [BCH-1168]: the IC50 in the assay with SKOV3 (Homo sapiens, SK-OV-3, SKOV3) came to 88 µM; with SKVLB, 94.2 µM; with T47D (Homo sapiens), 84.4 µM; in the assay on LOX (read-out: IC50), 100 µM; in the assay on HT29 (Homo sapiens, HT-29, HT29), 100 µM. The VLB/OV3 in the assay on SKVLB was determined as 1.07.
With `C[C@@H]1O[C@@H](O[C@H]2O[C@H](C(=O)CO)CC3=C2C(=O)c2cc4ccccc4c(O)c2C3=O)C[C@H](NC(=O)C(F)(F)F)[C@@H]1O` [BCH-1175, (1', S,1R,3S)-1,2,3,4,5,12-hexahydro-6-hydroxy-3-hydroxy-aceto-1-N-trifluoroacetyl-L-daunosamine-(2-oxo) naphthacene-5, 12-dione], the IC50 with SKOV3 (Homo sapiens, SK-OV-3, SKOV3) was > 100 µM; with SKVLB it was > 100 µM; in the assay on T47D (Homo sapiens), > 100 µM; in the assay with LOX (read-out: IC50), > 100 µM; in the assay on HT29 (Homo sapiens, HT-29, HT29) it was > 100 µM.
